Laboratory results from article PMC7999702, “Bioactive Bromotyrosine Derivatives from the Pacific Marine Sponge Suberea clavata (Pulitzer-Finali, 1982)” (Marine Drugs, 2021).
≈ marks a conversion by molar mass, not a printed value. Read-outs that look alike come from different tables or passages of the source.

Experiments:
[1] = test system: Vibrio aesturianus; experiment: Antibacterial bioassay, inhibition of bacterial growth (MIC); format: cell-based, Vibrio aestuarianus (ATCC 35048); conditions: for MIC: Vibrio
Procedure: (§1) Preparation of the compounds: antifouling efficiency of the compounds was assessed towards the inhibition of growth of key bacteria involved in marine and terrestrial surface colonisation. All bioassays were run in six replicates and using two batches of organisms. Compounds were tested at 0.01, 0.1, and 1 µg/mL. 96 well-plates were used and were coated with the compounds. Methanol was used as a carrier solvent and after its evaporation plates were sterilized under UV exposure for 30 min [41].
(§2) Seven strains of marine bacteria i.e., Halomonas aquamarina (ATCC 14400), Polaribacter irgensii (ATCC 700398), Shewanella putrefaciens (ATCC 8071), Roseobacter littoralis (ATCC 495666), Pseudoalteromonas elyakovii (ATCC 700519), Vibrio aestuarianus (ATCC 35048), Vibrio natriegens (ATCC 14058), and three strains of terrestrial bacteria, i.e., Escherichia coli (ATCC 11775), Staphylococcus aureus (ATCC 126000), and Pseudomonas aeruginosa (ATCC 16145) were used to assess the antibacterial potency of the compounds.
(§3) Inhibition of bacterial growth: experiments were run as previously described by Maréchal et al.. 96-well plates containing the compounds were inoculated with the bacteria (2 × 10^8 cells/mL) in LB medium ([…], Sigma, Andover, UK), (supplemented with NaCl (35 g/L) for marine strains), at 30 °C for 48 h. After incubation, the intensity of growth in the presence of the tested compounds and control (media only) was assessed by measurement of the OD 620 nm using a spectrophotometer (Apollo LB912, Berthold Technologies). Results are expressed as minimum inhibitory concentrations (MIC values).

[2] = test system: Escherichia coli; experiment: as above; format: cell-based, Escherichia coli (ATCC 11775); conditions: for MIC: Escherichia coli
Procedure: as §1, §2, §3

[3] = target: T1, DNMT1 (Homo sapiens, UniProt P26358); experiment: In vitro DNMT1 activity inhibition assay; format: biochemical; conditions: compounds at 50 µM, 25 ng purified DNMT1, 2 h, 37 °C, three independent experiments
T1 construct: purchased Active Motif
Procedure: DNMT1 activity was measured using in vitro DNMT activity/inhibition assay (Active Motif, Rixensart, Belgium) according to manufacturer’s instructions. All compounds were used at a final 50 µM concentration. The methylation reaction was performed by incubating 25 ng of purified DNMT1 with compounds for 2 h at 37 °C in the presence of 0.01% Triton X-100. The methylated DNA was then recognized by the His-tagged methyl-CpG binding domain protein 2b. The addition of a poly-histidine antibody conjugated to horseradish peroxidase provided a colorimetric readout quantified with a spectrophotometer (SpectraCount, Packard) at the wavelength of 450 nm. Data of DNMT1 activity are reported as percentage of control.

[4] = test system: Roseobacter littoralis; experiment: Antibacterial bioassay, inhibition of bacterial growth (MIC); format: cell-based, Roseobacter littoralis (ATCC 495666); conditions: 48 h; for MIC: read-out: MIC Roseobacter littoralis
Procedure: as §1, §2, §3

[5] = target: T2, Acetylcholinesterase from Electrophorus electricus (Electrophorus electricus, UniProt O42275); experiment: biochemical; format: biochemical
T2 construct: purchased Sigma-Aldrich
Procedure: This bioassay was set up after Ellman. This method is the most commonly used to screen compounds against this target. All reagents, buffers, and salts were purchased from Sigma-Aldrich (Saint-Louis, MO, USA). Two buffer solutions were prepared extemporaneously: buffer A (50 mM Tris-HCl pH 8 + 0.1% BSA); and buffer B (50 mM Tris-HCl pH 8 + 0.1 M NaCl + 0.02 M MgCl2.6H2O). Acetylcholinesterase from Electrophorus electricus (EC 3.1.1.7, AChE−0.2 U/mL) was dissolved in buffer A, 5,5′-dithiobis-2-nitrobenzoic acid (DTNB-Ellman’s reagent−3 mM) in buffer B, and acetylthiocholine iodide (ACTI−6 mM) in H2O. Tested compounds were dissolved in DMSO at 10 mg/mL, stored at −20 °C, and subsequently 100 times diluted in H2O before the assay. 10 μL AChE was preincubated for 10 min with 70 μL DTNB and 10 μL compounds solution in 96-well microplates. The enzymatic reaction was initiated with the addition of 10 μL ACTI, a synthetic substrate of AChE. After 30 min at 25 °C, absorbance of the plate was measured at 405 nm using a microplate reader (Tecan Infinite M200). Percentage of inhibition was calculated using the following equation: 100 × (Acontrol − Asample)/(Acontrol − A0), where Acontrol is the average absorbance of the wells in which tested compounds were replaced by water, Asample is the absorbance of the well with tested compound, and A0 the average absorbance of blank wells where AChE was omitted. Products leading to 50% inhibition of AChE were then submitted to dose-response experiments. Serial dilutions of the products were prepared (100, 50, 25, 12.5, 6.25, 3.125, 1.5625, and 0.78125 µg/mL). Enzymatic assay was performed according to the same procedure with 10 µL of each concentration added. IC50 values (concentration leading to 50% inhibition of enzymatic activity) were graphically determined by plotting the percentage of inhibition against the compound concentrations.
Each assay was performed in triplicate and results are expressed as mean values ± SD.

[6] = test system: Halomonas aquamarina; experiment: Antibacterial bioassay, inhibition of bacterial growth (MIC); format: cell-based, Halomonas aquamarina (ATCC 14400); conditions: for MIC Halomonas aquamarina / MIC: 48 h; for MIC toward Halomonas aquamarina: the lowest concentration tested; for MIC: Vreelandella aquamarina, read-out: MIC Halomonas aquamarina
Procedure: as §1, §2, §3

[7] = Degradation of 11-epi-fistularin-3 in acetonitrile/water (+0.1% HCOOH); format: physicochemical; conditions: acetonitrile/water (+0.1% HCOOH) 1/1, room temperature, two weeks; HPLC analysis
From the text: We then decided to manage the degradation process of epi-fistularin-3 (1) in a less drastic conditions by dissolving it in a mixture of acetonitrile/water (+0.1% HCOOH) 1/1 and stirring at room temperature for two weeks. The reaction mixture was then dried under vacuum and chromatographed.
The reaction mixture was then dried under vacuum and submitted for HPLC analysis.

[8] = tested at 0.01, 0.1 and 1 µg/mL, 30 °C, 48 h, OD 620 nm
[9] = tested at 0.01, 0.1 and 1 µg/mL, 30 °C, OD 620 nm
[10] = mean ± SD, triplicate, 30 min at 25 °C, absorbance 405 nm, read-out: Acetylcholinesterase IC50
[11] = tested at 0.01, 0.1 and 1 µg/mL, 30 °C, 48 h, OD 620 nm, read-out: MIC Vibrio aesturianus
[12] = tested at 0.01, 0.1 and 1 µg/mL, 30 °C, 48 h, OD 620 nm, read-out: MIC Escherichia coli

T2 sequence (O42275 24-633): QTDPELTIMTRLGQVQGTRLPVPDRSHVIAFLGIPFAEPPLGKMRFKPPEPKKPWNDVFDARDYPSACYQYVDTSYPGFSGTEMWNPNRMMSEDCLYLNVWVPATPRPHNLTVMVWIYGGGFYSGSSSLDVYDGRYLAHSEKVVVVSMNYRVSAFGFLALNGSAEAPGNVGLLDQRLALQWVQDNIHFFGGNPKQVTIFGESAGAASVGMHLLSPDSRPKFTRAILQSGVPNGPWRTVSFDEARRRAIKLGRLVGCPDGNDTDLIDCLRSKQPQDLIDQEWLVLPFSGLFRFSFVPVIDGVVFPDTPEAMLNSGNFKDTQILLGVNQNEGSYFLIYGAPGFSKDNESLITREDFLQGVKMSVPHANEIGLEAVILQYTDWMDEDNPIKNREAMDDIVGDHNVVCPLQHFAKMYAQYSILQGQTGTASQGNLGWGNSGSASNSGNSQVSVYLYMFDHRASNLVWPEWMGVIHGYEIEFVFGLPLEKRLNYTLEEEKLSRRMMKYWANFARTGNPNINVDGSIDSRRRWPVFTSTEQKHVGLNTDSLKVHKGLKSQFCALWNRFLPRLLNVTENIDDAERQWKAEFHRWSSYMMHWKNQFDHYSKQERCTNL
T1 sequence (P26358 whole entry): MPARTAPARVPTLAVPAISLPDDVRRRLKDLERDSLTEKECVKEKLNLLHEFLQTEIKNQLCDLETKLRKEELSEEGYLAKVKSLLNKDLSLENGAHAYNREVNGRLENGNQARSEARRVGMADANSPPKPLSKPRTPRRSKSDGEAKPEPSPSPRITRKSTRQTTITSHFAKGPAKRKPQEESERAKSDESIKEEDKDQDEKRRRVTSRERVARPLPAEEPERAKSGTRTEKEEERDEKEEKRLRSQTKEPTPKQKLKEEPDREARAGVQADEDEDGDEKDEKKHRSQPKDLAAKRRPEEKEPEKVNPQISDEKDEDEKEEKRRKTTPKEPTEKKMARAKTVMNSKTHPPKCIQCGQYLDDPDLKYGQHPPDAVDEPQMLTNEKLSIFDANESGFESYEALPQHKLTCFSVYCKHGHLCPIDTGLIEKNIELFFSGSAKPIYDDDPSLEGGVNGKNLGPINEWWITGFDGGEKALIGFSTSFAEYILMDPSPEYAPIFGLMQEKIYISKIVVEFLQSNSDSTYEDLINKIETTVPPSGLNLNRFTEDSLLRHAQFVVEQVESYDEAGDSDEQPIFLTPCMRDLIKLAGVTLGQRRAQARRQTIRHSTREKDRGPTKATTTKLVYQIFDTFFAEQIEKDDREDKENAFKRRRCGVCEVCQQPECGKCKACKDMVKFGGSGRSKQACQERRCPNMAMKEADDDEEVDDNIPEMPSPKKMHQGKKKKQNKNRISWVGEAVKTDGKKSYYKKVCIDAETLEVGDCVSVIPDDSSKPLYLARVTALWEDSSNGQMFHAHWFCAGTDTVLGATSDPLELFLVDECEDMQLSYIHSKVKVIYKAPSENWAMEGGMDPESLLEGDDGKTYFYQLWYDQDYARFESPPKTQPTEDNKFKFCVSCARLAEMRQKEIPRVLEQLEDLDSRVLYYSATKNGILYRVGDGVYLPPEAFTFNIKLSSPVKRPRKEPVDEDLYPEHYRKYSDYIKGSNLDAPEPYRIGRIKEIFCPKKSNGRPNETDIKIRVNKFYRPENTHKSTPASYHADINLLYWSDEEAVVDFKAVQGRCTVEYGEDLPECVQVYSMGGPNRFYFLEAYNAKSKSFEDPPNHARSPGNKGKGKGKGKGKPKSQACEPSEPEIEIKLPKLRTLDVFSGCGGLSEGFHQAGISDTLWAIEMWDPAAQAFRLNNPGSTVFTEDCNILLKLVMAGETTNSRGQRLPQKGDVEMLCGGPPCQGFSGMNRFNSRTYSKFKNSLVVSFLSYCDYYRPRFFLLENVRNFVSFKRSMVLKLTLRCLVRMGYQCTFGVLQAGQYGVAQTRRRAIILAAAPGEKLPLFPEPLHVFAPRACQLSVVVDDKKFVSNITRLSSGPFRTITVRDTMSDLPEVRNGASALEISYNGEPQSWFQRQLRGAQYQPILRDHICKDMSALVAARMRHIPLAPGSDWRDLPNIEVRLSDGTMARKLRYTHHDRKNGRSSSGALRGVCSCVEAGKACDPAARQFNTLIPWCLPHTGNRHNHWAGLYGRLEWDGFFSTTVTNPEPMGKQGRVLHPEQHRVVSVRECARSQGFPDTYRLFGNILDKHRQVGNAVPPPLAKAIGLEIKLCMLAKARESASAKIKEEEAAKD

Row | Molecule | MIC Vibrio aesturianus [1, 8] | MIC Escherichia coli [2, 8] | MIC Roseobacter littoralis [4, 9] | IC50 [5, 10] | MIC Halomonas aquamarina [6, 9] | MIC [1, 11] | MIC [2, 12] | MIC [4, 9] | MIC [6, 9] | other results
1 | COC1=C(Br)C(O)C2(C=C1Br)CC(C(=O)NCCCOc1c(Br)cc(CCNC(=O)C3=NOC4(C=C(Br)C(OC)=C(Br)C4O)C3)cc1Br)=NO2 (stereo not drawn) [11,17-dideoxyfistularin (14), 11,17-dideoxyfistularin-3] | >1 mg/L | >1 mg/L | >1 mg/L | 10 ± 0.3 µM | 0,01 µg/mL | – | – | – | – | DNMT1 activity, percentage of control [3]: statistically significant decrease; MIC toward Halomonas aquamarina [6]: 0.01 mg/L (≈ 0.00924 µM)
2 | COC1=C(Br)[C@H](O)[C@@]2(C=C1Br)CC(C(=O)NCCCOc1c(Br)cc(C(O)CNC(=O)C3=NO[C@]4(C=C(Br)C(OC)=C(Br)[C@@H]4O)C3)cc1Br)=NO2 (stereo partly drawn) [11-deoxyfistularin-3 (13), 11-deoxyfistularin-3] | >1 mg/L | >1 mg/L | >1 mg/L | > 10 µM | 0,01 µg/mL | – | – | – | – | MIC toward Halomonas aquamarina [6]: 0.01 mg/L (≈ 0.00911 µM)
3 | COC1=C(Br)[C@H](O)[C@@]2(C=C1Br)CC(C(=O)NCCC(O)CNC(=O)C1=NO[C@]3(C=C(Br)C(OC)=C(Br)[C@@H]3O)C1)=NO2 (stereo partly drawn) [11-hydroxyaerothionin (15), 11-hydroxy-aerothionin] | >1 mg/L | >1 mg/L | >1 mg/L | 10 ± 0.3 µM | 0,01 µg/mL | – | – | – | – | –
4 | COC1=C(Br)[C@H](O)[C@@]2(C=C1Br)CC(C(=O)NCCc1cc(Br)c(OC[C@H](O)CNC(=O)C3=NO[C@]4(C=C(Br)C(OC)=C(Br)[C@@H]4O)C3)c(Br)c1)=NO2 [17-deoxy-11-epi-fistularin-3 (10), 17-deoxy-11(R)-epi-fistularin-3] | – | – | – | > 10 µM | – | > 1 µM | > 1 µM | > 1 µM | 0.01 µM (≈ 0.011 µg/mL) | –
5 | COC1=C(Br)[C@H](O)[C@@]2(C=C1Br)CC(C(=O)NCC(=O)c1cc(Br)c(OC[C@H](O)CNC(=O)C3=NO[C@]4(C=C(Br)C(OC)=C(Br)[C@@H]4O)C3)c(Br)c1)=NO2 [17-oxo-11-epi-fistularin-3 (8), 17-oxo-11-epi-fistularin-3] | – | – | – | – | – | – | – | – | – | MIC ([1]; 48 h, read-out: MIC Vibrio aesturianus): 0.01 µM; MIC ([2]; 48 h, read-out: MIC Escherichia coli): > 1 µM; MIC [4]: > 1 µM; IC50 [5]: > 10 µM; MIC [6]: > 1 µM
6 | COC1=C(Br)[C@H](O)[C@@]2(C=C1Br)CC(C(=O)NC[C@@H](O)COc1c(Br)cc([C@H](O)CNC(=O)C3=NO[C@]4(C=C(Br)C(OC)=C(Br)[C@@H]4O)C3)cc1Br)=NO2 [epi-fistularin-3 (1), 11-epi-fistularin-3] | – | – | – | > 10 µM | – | > 1 µM | > 1 µM | > 1 µM | > 1 µM | stability in acidic aqueous acetonitrile (degradation products) [7]: gave agelorin A, agelorin B, and the compounds 2–7; remaining activity at 50 µM ([3]; read-out: DNMT1 activity, percentage of control): ~70%
7 | COC1=C(Br)[C@H](O)[C@@]2(C=C1Br)CC(C(=O)NC[C@@H](O)COc1c(Br)cc([C@H](O)CNC(=O)/C(Cc3cc(Br)c(OC)c(Br)c3O)=N/O)cc1Br)=NO2 [suberein-1 (2), suberein-1] | – | – | – | > 10 µM | – | 0.01 µM | > 1 µM | 1 µM (≈ 1.11 µg/mL) | > 1 µM | –
8 | COC1=C(Br)[C@H](O)[C@@]2(C=C1Br)CC(C(=O)NC[C@@H](O)c1cc(Br)c(OC[C@H](O)CNC(=O)/C(Cc3cc(Br)c(OC)c(Br)c3O)=N/O)c(Br)c1)=NO2 [suberein-2 (3), suberein-2] | – | – | – | > 10 µM | – | 0.01 µM | 0.01 µM | > 1 µM | > 1 µM | MIC ([1]; the lowest concentration tested, read-out: MIC against V. aesturianus): 0.01 mg/L; MIC ([2]; the lowest concentration tested, read-out: MIC against E. coli): 0.01 mg/L
9 | agelorin A [agelorin A (11)] | 0.1 mg/L | – | 0.1 mg/L | – | 0.1 µg/mL | – | – | – | – | –
10 | agelorin B [agelorin B (12)] | >1 mg/L | >1 mg/L | >1 mg/L | – | >1 µg/mL | – | – | – | – | –
